How the values were obtained:
Experiment in all cases: relative viability (nuclei count vs DMSO), 5 days (fraction); higher = more cells survive
[1] = compound: CCn1c(-c2nonc2N)nc2cnc(Oc3cccc(NC(=O)c4ccc(OCCN5CCOCC5)cc4)c3)cc21 + Cc1cc(Nc2cc(N3CCN(C)CC3)nc(Sc3ccc(NC(=O)C4CC4)cc3)n2)n[nH]1 [Tozasertib] (partner 0.1 µM)
Procedure, shortened: (§1)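 Values are medians from duplicate plates. Each reflects relative viability, defined as the nuclei count of treated wells over that of vehicle wells. Lung cancer cell lines in 1536-well plates were pin-tool dosed one day after seeding with one drug alone or with a fixed anchor-drug dose plus five library-drug doses (not always all listed) in √10 steps, then fixed, stained and imaged at 4× after 5 days.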

[2] = compound: CCC1=CN=CN=C1N2CCN(CC2)CC3=NC4=C(N3)C=C(C=C4)C(F)(F)F + COc1cccc2cc(-c3nc([C@H]4CC[C@H](C(=O)O)CC4)n4ncnc(N)c34)[nH]c12 [OSI-027] (partner 0.5 µM)
Procedure, shortened: as §1

[3] = compound: N=C1NC(=O)/C(=C/c2ccc(O)cc2)S1 [Mirin] + C[C@@H](Oc1cc(-c2cnn(C3CCNCC3)c2)cnc1N)c1c(Cl)ccc(F)c1Cl [Crizotinib] (partner 1 µM)
Procedure, shortened: as §1

[4] = compound: N=C1NC(=O)/C(=C/c2ccc(O)cc2)S1 [Mirin] + O=C(CCCCCCC(=O)Nc1ccccc1)NO [Vorinostat] (partner 1 µM)
Procedure, shortened: as §1

Cell Line | relative viability ([1]; first compound 0.04 µM) | relative viability ([1]; first compound 0.1265 µM) | relative viability ([1]; first compound 0.4 µM) | relative viability ([1]; first compound 1.265 µM) | relative viability ([1]; first compound 4 µM) | relative viability ([2]; first compound 0.04 µM) | relative viability ([2]; first compound 0.1265 µM) | relative viability ([2]; first compound 0.4 µM) | relative viability ([2]; first compound 1.265 µM) | relative viability ([2]; first compound 4 µM) | relative viability ([3]; first compound 0.25 µM) | relative viability ([3]; first compound 2.5 µM) | relative viability ([3]; first compound 7.906 µM) | relative viability ([3]; first compound 25 µM) | relative viability ([4]; first compound 0.25 µM) | relative viability ([4]; first compound 0.7906 µM) | relative viability ([4]; first compound 2.5 µM) | relative viability ([4]; first compound 7.906 µM) | relative viability ([4]; first compound 25 µM) | relative viability ([3]; first compound 0.7906 µM)
ChaGo-K-1 | 0.242 | 0.244 | 0.232 | 0.211 | 0.165 | 0.542 | 0.564 | 0.513 | 0.559 | 0.52 | 0.984 | 1.12 | 1.04 | 0.866 | 0.741 | 0.652 | 0.746 | 0.638 | 0.596 | –
SK-MES-1 | 0.811 | 0.657 | 0.518 | 0.228 | 0.21 | 0.648 | 0.592 | 0.597 | 0.57 | 0.622 | 1.03 | 1 | 1.04 | 1.19 | 1.12 | 1.46 | 1.18 | 1.12 | 1.24 | 1.14
NCI-H1755 | 0.527 | 0.58 | 0.534 | 0.416 | 0.349 | 0.712 | 0.691 | 0.717 | 0.458 | 0.663 | 0.829 | 0.851 | 0.931 | 1.02 | 0.761 | 0.62 | 0.863 | 0.59 | 0.824 | 0.892
NCI-H2023 | 0.363 | 0.334 | 0.277 | 0.16 | 0.136 | 0.447 | 0.403 | 0.342 | 0.321 | 0.453 | 0.658 | 0.585 | 0.692 | 0.567 | 0.683 | 0.724 | 0.653 | 0.628 | 0.595 | 0.665
